{"source": "PubChem BioAssay (NCI)", "experiment_in_all_cases": "NCI-60 cell line screen, 48 h", "key": {"[1]": {"system": "NCI-H460 lung"}, "[2]": {"system": "NCI-H522 lung"}, "[3]": {"system": "NCI/ADR-RES ovarian"}, "[4]": {"system": "OVCAR-3 ovarian"}, "[5]": {"system": "OVCAR-4 ovarian"}, "[6]": {"system": "OVCAR-5 ovarian"}, "[7]": {"system": "OVCAR-8 ovarian"}, "[8]": {"system": "PC-3 prostate"}, "[9]": {"system": "RPMI-8226 leukemia"}, "[10]": {"system": "RXF 393 renal"}, "[11]": {"system": "SF-268 CNS"}, "[12]": {"system": "SF-295 CNS"}, "[13]": {"system": "SF-539 CNS"}, "[14]": {"system": "SK-MEL-2 melanoma"}, "[15]": {"system": "SK-MEL-28 melanoma"}, "[16]": {"system": "SK-MEL-5 melanoma"}, "[17]": {"system": "SK-OV-3 ovarian"}, "[18]": {"system": "SN12C renal"}, "[19]": {"system": "SNB-19 CNS"}, "[20]": {"system": "SNB-75 CNS"}, "[21]": {"system": "SR leukemia"}, "[22]": {"system": "SW-620 colon"}, "[23]": {"system": "T-47D breast"}, "[24]": {"system": "TK-10 renal"}, "[25]": {"system": "U251 CNS"}, "[26]": {"system": "UACC-257 melanoma"}, "[27]": {"system": "UACC-62 melanoma"}, "[28]": {"system": "UO-31 renal"}}, "note": "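Method: 48-hour compound exposure of cells in 96-well plates, five concentrations, linear interpolation of endpoints. Here, GI50 denotes the concentration required for 50% inhibition of growth. TGI marks complete inhibition of growth.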", "data": [{"smiles": "O=C(OCc1nc2nc(Cl)nc(N3CCOCC3)c2[nH]1)n1ccnc1", "values": [{"measurement": "GI50", "setting": "[1]", "result": 1.86, "unit": "µM"}, {"measurement": "TGI", "setting": "[1]", "result": 4.02, "unit": "µM"}, {"measurement": "GI50", "setting": "[2]", "result": 1.71, "unit": "µM"}, {"measurement": "TGI", "setting": "[2]", "result": 4.38, "unit": "µM"}, {"measurement": "GI50", "setting": "[3]", "result": 2.57, "unit": "µM"}, {"measurement": "TGI", "setting": "[3]", "result": 8.84, "unit": "µM"}, {"measurement": "GI50", "setting": "[4]", "result": 1.29, "unit": "µM"}, {"measurement": "TGI", "setting": "[4]", "result": 2.79, "unit": "µM"}, {"measurement": "GI50", "setting": "[5]", "result": 1.63, "unit": "µM"}, {"measurement": "TGI", "setting": "[5]", "result": 3.38, "unit": "µM"}, {"measurement": "GI50", "setting": "[6]", "result": 1.52, "unit": "µM"}, {"measurement": "TGI", "setting": "[6]", "result": 3.07, "unit": "µM"}, {"measurement": "GI50", "setting": "[7]", "result": 2.56, "unit": "µM"}, {"measurement": "TGI", "setting": "[7]", "result": 11, "unit": "µM"}, {"measurement": "GI50", "setting": "[8]", "result": 1.69, "unit": "µM"}, {"measurement": "TGI", "setting": "[8]", "result": 3.65, "unit": "µM"}, {"measurement": "GI50", "setting": "[9]", "result": 0.582, "unit": "µM"}, {"measurement": "TGI", "setting": "[9]", "result": 3.32, "unit": "µM"}, {"measurement": "GI50", "setting": "[10]", "result": 1.61, "unit": "µM"}, {"measurement": "TGI", "setting": "[10]", "result": 3.06, "unit": "µM"}, {"measurement": "GI50", "setting": "[11]", "result": 1.74, "unit": "µM"}, {"measurement": "TGI", "setting": "[11]", "result": 3.6, "unit": "µM"}, {"measurement": "GI50", "setting": "[12]", "result": 10.5, "unit": "µM"}, {"measurement": "TGI", "setting": "[12]", "result": 22.2, "unit": "µM"}, {"measurement": "GI50", "setting": "[13]", "result": 1.48, "unit": "µM"}, {"measurement": "TGI", "setting": "[13]", "result": 2.82, "unit": "µM"}, {"measurement": "GI50", "setting": "[14]", "result": 1.95, "unit": "µM"}, {"measurement": "TGI", "setting": "[14]", "result": 4.51, "unit": "µM"}, {"measurement": "GI50", "setting": "[15]", "result": 1.74, "unit": "µM"}, {"measurement": "TGI", "setting": "[15]", "result": 3.24, "unit": "µM"}, {"measurement": "GI50", "setting": "[16]", "result": 1.83, "unit": "µM"}, {"measurement": "TGI", "setting": "[16]", "result": 3.35, "unit": "µM"}, {"measurement": "GI50", "setting": "[17]", "result": 3.4, "unit": "µM"}, {"measurement": "TGI", "setting": "[17]", "result": 14.3, "unit": "µM"}, {"measurement": "GI50", "setting": "[18]", "result": 1.38, "unit": "µM"}, {"measurement": "TGI", "setting": "[18]", "result": 2.76, "unit": "µM"}, {"measurement": "GI50", "setting": "[19]", "result": 2.42, "unit": "µM"}, {"measurement": "TGI", "setting": "[19]", "result": 6.46, "unit": "µM"}, {"measurement": "GI50", "setting": "[20]", "result": 1.04, "unit": "µM"}, {"measurement": "TGI", "setting": "[20]", "result": 3.49, "unit": "µM"}, {"measurement": "GI50", "setting": "[21]", "result": 1.09, "unit": "µM"}, {"measurement": "TGI", "setting": "[21]", "result": 5.09, "unit": "µM"}, {"measurement": "GI50", "setting": "[22]", "result": 1.5, "unit": "µM"}, {"measurement": "TGI", "setting": "[22]", "result": 3.32, "unit": "µM"}, {"measurement": "GI50", "setting": "[23]", "result": 1.88, "unit": "µM"}, {"measurement": "TGI", "setting": "[23]", "result": 4.48, "unit": "µM"}, {"measurement": "GI50", "setting": "[24]", "result": 1.94, "unit": "µM"}, {"measurement": "TGI", "setting": "[24]", "result": 4.05, "unit": "µM"}, {"measurement": "GI50", "setting": "[25]", "result": 1.96, "unit": "µM"}, {"measurement": "TGI", "setting": "[25]", "result": 4.32, "unit": "µM"}, {"measurement": "GI50", "setting": "[26]", "result": 1.9, "unit": "µM"}, {"measurement": "TGI", "setting": "[26]", "result": 3.94, "unit": "µM"}, {"measurement": "GI50", "setting": "[27]", "result": 1.55, "unit": "µM"}, {"measurement": "TGI", "setting": "[27]", "result": 2.94, "unit": "µM"}, {"measurement": "GI50", "setting": "[28]", "result": 1.19, "unit": "µM"}, {"measurement": "TGI", "setting": "[28]", "result": 2.42, "unit": "µM"}]}]}
